Results taken from patent publication US7399472B2, “Vaccines” (Smithkline Beecham Biologicals, priority 1999, dated 2008).

Tests used:
erythrocytes = test: Haemolysis assay for saponins; conditions: substantially pure samples
Method: Fresh blood from guinea pigs is washed with phosphate buffered saline (PBS) 3 times in a desk-top centrifuge. After resuspension to the original volume the blood is further diluted 10 fold in PBS. • 2. 50 μl of this blood suspension is added to 800 μl of PBS containing two-fold dilutions of surfactant or saponin. • 3. After 8 hours the haemolysis is assessed visually or by measuring the optical density of the supernatant. The presence of a red supernatant, which absorbs light at 570 nm indicates the presence of haemolysis. • 4. The results are expressed as the concentration of the first saponin dilution at which hemolysis no longer occurs.
For the purposes of his invention the saponin adjuvant preparation is haemolytic if it lyses the erythrocytes at a concentration of less than 0.1%. As means of reference, substantially pure samples of QuilA, QS21, QS7.

Lipo-OspA = format: in vivo, Balb/c mice; conditions: 14 days after nasal boost with 5 μg lipo-OspA; 20 μg CpG 1001 and/or 5 μg QS21; compared with PBS
influenza virus = test system: influenza virus; parameters: species or system Balb/c mice; conditions: mouse, in vivo

| Molecule | haemolytic saponin as defined in this assay (erythrocytes) | intranasal boosting of systemic antibodies to Lipo-OspA (OspA specific IgG and LA2 titres) (Lipo-OspA) | intranasal boosting of IgG or HAI antibodies to Flu strains (influenza virus) |
| --- | --- | --- | --- |
| C[C@@H]1CC[C@@]2(OC1)O[C@H]1[C@@H](O)[C@H]3[C@@H]4CC[C@H]5C[C@@H](O[C@@H]6O[C@H](CO)[C@H](O[C@@H]7O[C@H](CO)[C@@H](O)[C@H](O[C@@H]8OC[C@@H](O)[C@H](O)[C@H]8O)[C@H]7O[C@@H]7O[C@H](CO)[C@H](O)[C@H](O[C@@H]8O[C@H](CO)[C@@H](O)[C@H](O)[C@H]8O)[C@H]7O)[C@H](O)[C@H]6O)[C@H](O)C[C@]5(C)[C@H]4CC[C@]3(C)[C@H]1[C@@H]2C [Digitonin] | haemolytic | – | – |
| CC1(C)[C@@H](O[C@H]2O[C@H](C(=O)O)[C@@H](O)[C@H](O)[C@H]2O[C@@H]2O[C@H](C(=O)O)[C@@H](O)[C@H](O)[C@H]2O)CC[C@]2(C)[C@H]3C(=O)C=C4[C@@H]5C[C@@](C)(C(=O)O)CC[C@]5(C)CC[C@@]4(C)[C@]3(C)CC[C@@H]12 [glycyrrhizic acid] | non haemolytic | – | – |
| QS21 | haemolytic | improve significantly | do not improve |
| β-escin | haemolytic | – | – |
